Here are results for 1 sequence from patent US20160251403A1, “PEPTIDE COMBINATIONS AND USES THEREOF IN TREATING DUST MITE ALLERGY” (ALK-ABELLO A/S, priority 2013, published 2016).

For this assay, the target named is T1, DPA10202-DPB10501 (Homo sapiens, UniProt P04440+P20036, A42M/A65V/A84E/F191V/F64L/G113D/G114E/K142R/L158P/M116V/M62Q/P115A/Q81R/R125K/T114A/T199I/T259P/V234M).
T1 sequence (P04440 30-258 A65V/A84E/F64L/G113D/G114E/M116V/P115A/R125K/T199I/V234M): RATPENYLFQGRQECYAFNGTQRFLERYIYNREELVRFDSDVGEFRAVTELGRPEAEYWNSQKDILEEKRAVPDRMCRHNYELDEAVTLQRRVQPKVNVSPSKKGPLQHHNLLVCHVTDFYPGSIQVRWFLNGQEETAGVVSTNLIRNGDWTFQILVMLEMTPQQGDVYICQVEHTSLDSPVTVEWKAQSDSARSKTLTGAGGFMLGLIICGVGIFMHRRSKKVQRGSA
T1 sequence (P20036 29-260 A42M/F191V/K142R/L158P/M62Q/Q81R/T114A/T259P): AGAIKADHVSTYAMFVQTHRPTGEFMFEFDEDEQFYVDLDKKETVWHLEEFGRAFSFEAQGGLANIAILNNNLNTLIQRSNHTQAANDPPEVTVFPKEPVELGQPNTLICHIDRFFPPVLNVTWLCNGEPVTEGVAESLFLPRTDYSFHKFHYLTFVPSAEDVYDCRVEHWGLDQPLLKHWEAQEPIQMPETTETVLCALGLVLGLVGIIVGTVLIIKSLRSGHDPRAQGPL
Put plainly: Competitive MHC class II binding assay, DPA10202-DPB10501. As to conditions: positive binding at cutoff 1000 nM; read-out: HLA-DPA10202-DPB10501.

No end group written: not given here.

For the sequence LVGDNGVLASAIATHAKIRD [pep-110], the IC50 is < 1 µM.
